Laboratory results from patent US20050182140A1, “Antimicrobial compositions” (Microban Products Company, priority 2003, published 2005).

Experiments:
Type in all cases: cell-based
S. aureus 6538 [1] = experiment: Kirby Bauer Test Method, treated cotton samples (Example 3); conditions: agent at 800 ppm with R10800 at 0.67% and USV at 0.33%, cotton laundered 50 times
Experimental: (§1) The efficacy of Emulsion A in cotton sample material was tested, alone and in combination with other agents. The Kirby Bauer Test Method, which is a known bacterial test method, was followed. The sample size of the cotton was 38.1 mm×38.1 mm (1.5 inches×1.5 inches) square. The growth medium was Mueller-Hinton Agar. Prior to treatment, the cotton was steam sterilized at 121° C. The samples were pre-wet with sterile deionized water. The samples were incubated at 37° C.±2° C. for 18 to 24 hours. The samples were each laundered 50 times unless indicated to the contrary. NZ means that no zone of inhibition surrounded the sample. NI means that there was no inhibition of growth under the sample (if observable). The zone of inhibition was reported in millimeters.
(§2) Note that the percentages of R10800 and USV represent target loading levels on the cotton samples.

K. pneumoniae [2] = experiment: as above; conditions: agent at 800 ppm with R10800 at 0.67% and USV at 0.33%, cotton laundered 50 times
Experimental: as §1, §2

S. aureus 6538 [3] = experiment: AATCC Test Method 147, treated cotton samples (Examples 2 and 4); conditions: Example 2; agent at 900 ppm; cotton laundered 50 times
Experimental: (§3) The efficacy of Emulsion A in cotton sample material was tested, alone and in combination with other agents. The AATCC Test Method 147, which is a known bacterial test method for textiles, was followed. The sample size of the cotton was a 25 mm×75 mm rectangle. The growth medium was Nutrient Agar. Prior to treatment, the cotton was steam sterilized at 121° C. The samples were incubated at 37° C.±2° C. for 18 to 24 hours. The samples were each laundered 50 times prior to doing the micro testing unless indicated to the contrary. NZ means that no zone of inhibition surrounded the sample. NI means that there was no inhibition of growth under the sample (if observable). The zone of inhibition was reported in millimeters.
(§4) The efficacy of Emulsion A in cotton sample material was tested, alone and in combination with other agents. The AATCC Test Method 147, which is a known test method, was followed. The sample size of the cotton was 25 mm×75 mm rectangle. The growth medium was Nutrient Agar. Prior to treatment, the cotton was steam sterilized at 121° C. The samples were incubated at 37° C.±2° C. for 18 to 24 hours. The samples were each laundered 50 times unless indicated to the contrary. NZ means that no zone of inhibition surrounded the sample. NI means there was no inhibition of growth under the sample (if observable). The zone of inhibition was reported in millimeters.

K. pneumoniae [4] = experiment: as above; conditions: Example 2; agent at 900 ppm; cotton laundered 50 times
Experimental: as §3, §4

Compound | Size of Zone (S. aureus 6538 [1]) [mm] | Zone Results (S. aureus 6538 [1]) | Size of Zone (K. pneumoniae [2]) [mm] | Zone Results (K. pneumoniae [2]) | Size of Zone (S. aureus 6538 [3]) [mm] | Size of Zone (K. pneumoniae [4]) [mm] | Zone Results (K. pneumoniae [4])
O=C(Nc1ccc(Cl)cc1)Nc1ccc(Cl)c(Cl)c1 [Triclocarban] | 0 | NZ/NI | 0 | NZ/NI |  |  | 
Oc1ccccc1-c1ccccc1 [Ortho-phenyl phenol] | 0 | NZ/NI | 0 | NZ/NI |  |  | 
Zinc pyrithione [Zinc pyrithione (FPS dispersion)] | 0 | NZ/I | 0 | NZ/NI | 2 | 0 | NZ/NI
